Results taken from patent publication US20060194969A1, “4-Substituted benzimidazoles and their uses as inhibitors of gastric secretion” (priority 2002, published 2006).

| melting point | Compound |
| --- | --- |
| 272 °C | Cc1cccc(C)c1CNc1cc(C(N)=O)cc2c1nc(C)n2C [Example 39, 4-(2,6-Dimethyl-benzylamino)-1,2-dimethyl-1H-benzimidazole-6-carboxamide] |
| 256 to 257 °C | Cc1nnc(-c2cc(NCc3c(C)cccc3C)c3nc(C)n(C)c3c2)o1 [Example 85, 4-(2,6-Dimethyl-benzylamino)-6-(5-methyl-[1,3,4]oxadiazol-2yl)-1,2-dimethyl-1H-benzimidazole] |
| 235 °C | Cc1cccc(C)c1CNc1cc(C2=NCCO2)cc2c1nc(C)n2C [Example 74, 6-(4,5-Dihydro-oxazol-2-yl)-4-(2,6-dimethyl-benzylamino)-1,2-dimethyl-1H-benzimidazole] |
| 171 to 172 °C | Cc1cccc(C)c1CNc1cc(C(=O)N(C)C)cc2c1nc(CO)n2C [Example 82, 6-(N,N-Dimethylaminocarbonyl)-4-(2,6-dimethyl-benzylamino)-2-hydroxymethyl-1-methyl-1H-benzimidazole] |
| 269 to 272 °C | COCc1nc2c(NCc3c(C)cccc3C)cc(C(=O)O)cc2n1C [Example 34, 4-(2,6-Dimethyl-benzylamino)-2-methoxymethyl-1-methyl-1H-benzimidazole-6-carboxylic Acid] |
| 259 to 260 °C | Cc1cccc(C)c1CNc1cc(C(=O)NCCO)cc2c1nc(C)n2C [Example 36, 4-(2,6-Dimethyl-benzylamino)-6-(2-hydroxyethyl-aminocarbonyl)-1,2-dimethyl-1H-benzimidazole] |
| 201 to 202 °C | Cc1cccc(C)c1CNc1cc(C(=O)N2CC2)cc2c1nc(C)n2C [Example 54, 6-(1-Aziridinylcarbonyl)-4-(2,6-dimethyl-benzylamino)-1,2-dimethyl-1H-benzimidazole] |
| 171 to 173 °C | CCOC(=O)c1cc(NCc2c(C)cccc2CC)c2nc(C)n(C)c2c1 [Example 27, Ethyl 4-(2-ethyl-6-methyl-benzylamino)-1,2-dimethyl-1H-benzimidazole-6-carboxylate] |
| 166 °C | COC(=O)c1cc(OCc2ccccc2)c2nc(C)n(C)c2c1 [Example 53, Methyl 4-benzyloxy-1,2-dimethyl-1H-benzimidazole-6-carboxylate] |
| 248 to 249 °C | COn1c(C)nc2c(NCc3c(C)cccc3C)cc(C(=O)O)cc21 [Example 79, 4-(2,6-Dimethyl-benzylamino)-1-methoxy-2-methyl-1H-benzimidazole-6-carboxylic acid] |
| 213 to 214 °C | Cc1nc2c(OCc3ccccc3)cc(CO)cc2n1C [Example 5, 4-Benzyloxy-6-hydroxymethyl-1,2-dimethyl-1H-benzimidazole] |
| 273 to 274 °C | Cc1cccc(C)c1CNc1cc(C2=NCCN2)cc2c1nc(C)n2C [Example 72, 6-(4,5-Dihydro-1H-imidazol-2-yl)-4-(2,6-dimethyl-benzylamino)-1,2-dimethyl-1H-benzimidazole] |
| 298 °C | CNC(=O)c1cc(NCc2c(C)cccc2C)c2nc(C)[nH]c2c1 [Example 69, 4-(2,6-Dimethyl-benzylamino)-6-(N-methylaminocarbonyl)-2-methyl-1H-benzimidazole] |
| 193 to 195 °C | COC(=O)Nc1cccc(C)c1CNc1cc(C(=O)N(C)C)cc2c1nc(C)n2C [Example 50, 6-(N,N-Dimethylaminocarbonyl)-4-(2-methoxycarbonylamino-6-methyl-benzylamino)-1,2-dimethyl-1H-benzimidazole] |
| 120 °C | CCOC(=O)c1cc(OCc2ccccc2)c2nc(C3CC3)n(C)c2c1 [Example 86, Ethyl 4-benzyloxy-2-cyclopropyl-1-methyl-1H-benzimidazole-6-carboxylate] |
| 245 to 246 °C | Cc1cccc(C)c1CNc1cc(CO)cc2c1nc(C)n2C [Example 58, 4-(2,6-Dimethyl-benzylamino)-6-hydroxymethyl-1,2-dimethyl-1H-benzimidazole] |
| 106 to 107 °C | CCOC(=O)c1cc(NCc2c(C)cccc2CC)c2nc(COC)n(C)c2c1 [Example 29, Ethyl 4-(2-ethyl-6-methyl-benzylamino)-2-methoxymethyl-1-methyl-1H-benzimidazole-6-carboxylate] |
| 180 °C | Cc1cccc(C)c1COc1cc(C(=O)N(C)C)cc2c1nc(C)n2C [Example 9, 6-(N,N-Dimethylaminocarbonyl)-4-(2,6-dimethyl-benzyloxy)-1,2-dimethyl-1H-benzimidazole] |
| 312 to 314 °C | CCc1cccc(C)c1CNc1cc(C(=O)O)cc2c1nc(C)n2C [Example 31, 4-(2-Ethyl-6-methyl-benzylamino)-1,2-dimethyl-1H-benzimidazole-6-carboxylic Acid] |

| melting point | Compound |
| --- | --- |
| 148 to 149 °C | Cc1nc2c(O[C@@H]3c4ccccc4C[C@H]3O)cc(C(=O)NC3CC3)cc2n1C (relative stereo) [Example 26, 6-(Cyclopropylaminocarbonyl)-4-(trans-2,3-dihydro-2-hydroxy-1-indenyloxy)-1,2-dimethyl-1H-benzimidazole] |
| 152 °C | CCOC(=O)c1cc(OCc2ccccc2)c2nc(C)n(C)c2c1 [Example 52, Ethyl 4-benzyloxy-1,2-dimethyl-1H-benzimidazole-6-carboxylate] |
| 113 °C | COCc1cc(OCc2ccccc2)c2nc(C)n(C)c2c1 [Example 6, 4-Benzyloxy-6-methoxymethyl-1,2-dimethyl-1H-benzimidazole] |
| 159 to 160 °C | Cc1nc2c(OCc3ccccc3)cc(C(=O)N(C)C)cc2n1C [Example 7, 4-Benzyloxy-6-(N,N-dimethylaminocarbonyl)-1,2-dimethyl-1H-benzimidazole] |
| 157 °C | CCc1cccc(C)c1COc1cc(C(=O)OC)cc2c1nc(C)n2C [Example 1, Methyl 4-(2-ethyl-6-methyl-benzyloxy)-1,2-dimethyl-1H-benzimidazole-6-carboxylate] |
| 315 to 318 °C | Cc1cccc(C)c1CNc1cc(C(=O)O)cc2c1nc(C)n2C [Example 32, 4-(2,6-Dimethyl-benzylamino)-1,2-dimethyl-1H-benzimidazole-6-carboxylic Acid] |
| 197 to 198 °C | Cc1cccc(CO)c1CNc1cc(C(=O)N(C)C)cc2c1nc(C)n2C [Example 70, 6-(N,N-Dimethylaminocarbonyl)-4-(2-hydroxymethyl-6-methyl-benzylamino)-1,2-dimethyl-1H-benzimidazole] |
| 168 to 169 °C | CCc1cccc(C)c1CNc1cc(C(=O)N(C)C)cc2c1nc(C)n2COCc1ccccc1.O=C(O)C(=O)O [Example 48, 1-Benzyloxymethyl-6-(N,N-dimethylaminocarbonyl)-4-(2-ethyl-6-methyl-benzylamino)-2-methyl-1H-benzimidazole Oxalate] |
| 186 to 187 °C | COCc1nc2c(NCc3c(C)cccc3C)cc(C(=O)NCCO)cc2n1C [Example 37, 4-(2,6-Dimethyl-benzylamino)-6-(2-hydroxyethyl-aminocarbonyl)-2-methoxymethyl-1-methyl-1H-benzimidazole] |
| 306 °C | Cc1nc2c(O[C@@H]3c4ccccc4C[C@H]3O)cc(C(=O)O)cc2n1C (relative stereo) [Example 16, 4-(trans-2,3-Dihydro-2-hydroxy-1-indenyloxy)-1,2-dimethyl-1H-benzimidazole-6-carboxylic Acid] |
| 171 to 172 °C | COn1c(C)nc2c(NCc3c(C)cccc3C)cc(Br)cc21 [Example 77, 6-Bromo-4-(2,6-dimethyl-benzylamino)-1-methoxy-2-methyl-1H-benzimidazole] |
| 128 to 129 °C | COn1c(C)nc2c(NCc3c(C)cccc3C)cc(C(=O)N(C)C)cc21 [Example 80, 6-(N,N-Dimethylamino-carbonyl)-4-(2,6-dimethyl-benzylamino)-1-methoxy-2-methyl-1H-benzimidazole] |
| 277 °C | Cc1cccc(C)c1CNc1cc(Br)cc2c1nc(C)n2O [Example 76, 6-Bromo-4-(2,6-dimethyl-benzylamino)-1-hydroxy-2-methyl-1H-benzimidazole] |
| 165 to 166 °C | CCOC(=O)c1cc(NCc2c(C)cccc2C)c2nc(C)n(OC)c2c1 [Example 78, Ethyl 4-(2,6-dimethyl-benzylamino)-1-methoxy-2-methyl-1H-benzimidazole-6-carboxylate] |
| 132 to 134 °C | Cn1c(C2CC2)nc2c(O[C@@H]3c4ccccc4C[C@H]3O)cc(C(=O)O)cc21 (relative stereo) [Example 59, 2-Cyclopropyl-4-(trans-2,3-dihydro-2-hydroxy-1-indenyloxy)-1-methyl-1H-benzimidazole-6-carboxylic acid] |
| 184 °C | CCOC(=O)c1cc(O[C@@H]2c3c(C)ccc(C)c3C[C@H]2O)c2nc(C)n(C)c2c1 (relative stereo) [Example 20, Ethyl 4-(trans-2,3-dihydro-2-hydroxy-4,7-dimethyl-1-indenyloxy)-1,2-dimethyl-1H-benzimidazole-6-carboxylate] |
| 237 to 238 °C | Cc1cccc(C)c1CNc1cc(S(=O)(=O)N(C)C)cc2c1nc(C)n2C [Example 63, 7-(2,6-Dimethyl-benzylamino)-2,3-dimethyl-3H-benzimidazole-5-sulfonic acid dimethylamide] |
| 219 to 221 °C | Cc1nc2c(N[C@@H]3c4ccccc4C[C@H]3O)cc(C(=O)N(C)C)cc2n1C (relative stereo) [Example 51, 4-(trans-2,3-Dihydro-2-hydroxy-1-indenylamino)-6-(N,N-dimethylaminocarbonyl)-1,2-dimethyl-1H-benzimidazole] |
| 177 to 178 °C | Cc1cccc(C)c1CNc1cc(C(=O)N(C)CCO)cc2c1nc(C)n2C [Example 56, 4-(2,6-Dimethyl-benzylamino)-6-(N-2-hydroxyethyl-N-methylaminocarbonyl)-1,2-dimethyl-1H-benzimidazole] |

| Compound | melting point |
| --- | --- |
| CC(=O)OCc1nc2c(NCc3c(C)cccc3C)cc(Br)cc2n1C [Example 81, 2-Acetoxymethyl-6-bromo-4-(2,6-dimethyl-benzylamino)-1-methyl-1H-benzimidazole] | 188 to 190 °C |
